Results: ChEMBL document CHEMBL1127364, “L-735,524: the design of a potent and orally bioavailable HIV protease inhibitor” (J Med Chem, 1994)

What was measured:
[1] = biological target: Human immunodeficiency virus type 1 protease (Human immunodeficiency virus 1) (UniProt Q72874); assay: Inhibition of the spread of HIV-1 IIIb infection in MT-4 human T-lymphoid cells; type: functional, cell-based
[2] = biological target: Human immunodeficiency virus type 1 protease (Human immunodeficiency virus 1, UniProt Q72874); assay: Evaluated for the inhibition of HIV protease
[3] = system: MT4; assay: Compound was evaluated for the inhibition of the spread of HIV-1 IIIb infection in MT-4 human T-lymphoid cells; value ranges from 50-100 nM; type: functional; details: read-out: CIC95
[4] = Partition coefficient of the compound was evaluated; type: physicochemical; details: octanol/water
[5] = Compound was evaluated for maximum plasma concentration levels in dogs at 10 mg/kg (in 0.05M citric acid solution) po; details: dog
[6] = system: MT4; assay: Compound was evaluated for the inhibition of the spread of HIV-1 IIIb infection in MT-4 human T-lymphoid cells; value ranges from 25-50 nM; type: functional; details: read-out: CIC95
[7] = Compound was evaluated for the solubility at pH value of 7.4; type: physicochemical; details: pH 7.4
[8] = system: MT4; assay: Compound was evaluated for the inhibition of the spread of HIV-1 IIIb infection in MT-4 human T-lymphoid cells; value ranges from 25-100 nM; type: functional; details: read-out: CIC95
[9] = system: MT4; assay: Compound was evaluated for the inhibition of the spread of HIV-1 IIIb infection in MT-4 human T-lymphoid cells; value ranges from […]-[…] nM; type: functional; details: read-out: CIC95

| SMILES | IC95 [1] [nM] | IC50 [2] [nM] | further results |
| --- | --- | --- | --- |
| CCN1CCN(C[C@@H](O)C[C@@H](Cc2ccccc2)C(=O)N[C@@H]2c3ccccc3C[C@H]2O)[C@H](C(=O)NC(C)(C)C)C1 | > 400 | 6.1 | – |
| CC(C)(C)NC(=O)[C@@H]1CN(CC(=O)OC(C)(C)C)CCN1C[C@@H](O)C[C@@H](Cc1ccccc1)C(=O)N[C@@H]1c2ccccc2C[C@H]1O | 100 | 0.81 | – |
| CC(C)(C)NC(=O)[C@@H]1CN(S(=O)(=O)c2cccnc2)CCN1C[C@@H](O)C[C@@H](Cc1ccccc1)C(=O)N[C@@H]1c2ccccc2C[C@H]1O | 200 | 0.3 | – |
| CC(C)(C)NC(=O)[C@@H]1CN(Cc2ccccc2S)CCN1C[C@@H](O)C[C@@H](Cc1ccccc1)C(=O)N[C@@H]1c2ccccc2C[C@H]1O | 25 | 0.54 | – |
| CC(C)(C)NC(=O)[C@@H]1CN(Cc2ccncc2)CCN1C[C@@H](O)C[C@@H](Cc1ccccc1)C(=O)N[C@@H]1c2ccccc2C[C@H]1O | – | 0.39 | IC95 [3]: 50 nM |
| CC(C)(C)NC(=O)[C@@H]1CN(Cc2ccc(F)cc2F)CCN1C[C@@H](O)C[C@@H](Cc1ccccc1)C(=O)N[C@@H]1c2ccccc2C[C@H]1O | – | 0.31 | logP [4]: 3.69; Cmax [5]: 730 nM; IC95 [6]: 25 nM |
| Cc1nc(S(=O)(=O)N2CCN(C[C@@H](O)C[C@@H](Cc3ccccc3)C(=O)N[C@@H]3c4ccccc4C[C@H]3O)[C@H](C(=O)NC(C)(C)C)C2)c(C)s1 | 200 | 0.16 | – |
| CC(C)(C)NC(=O)[C@@H]1CN(C(=O)c2cc3ccccc3oc2=O)CCN1C[C@@H](O)C[C@@H](Cc1ccccc1)C(=O)N[C@@H]1c2ccccc2C[C@H]1O | 50 | 0.13 | – |
| CC(C)(C)NC(=O)[C@@H]1CN(C(=O)OCc2ccccc2)CCN1C[C@@H](O)C[C@@H](Cc1ccccc1)C(=O)NC1c2ccccc2C[C@H]1O (single isomer, unassigned) | 100 | 0.36 | logP [4]: 4.67; Cmax [5]: < 100 nM; solubility [7]: < 1 µg/mL |
| CC(C)(C)NC(=O)[C@@H]1CN(Cc2cccnc2)CCN1C[C@@H](O)C[C@@H](Cc1ccccc1)C(=O)NC1c2ccccc2C[C@H]1O.O (single isomer, unassigned) | – | – | IC95 [8]: 25 nM; logP [4]: 2.92; Cmax [5]: 11400 nM |
| CC(C)(C)NC(=O)[C@@H]1CCCN1C[C@@H](O)C[C@@H](Cc1ccccc1)C(=O)N[C@@H]1c2ccccc2C[C@H]1O | 1500 | 347 | – |
| CC(C)(C)NC(=O)[C@@H]1CN(S(=O)(=O)c2cccc3cccnc23)CCN1C[C@@H](O)C[C@@H](Cc1ccccc1)C(=O)N[C@@H]1c2ccccc2C[C@H]1O | – | 0.013 | logP [4]: 3.7; IC95 [9]: 12.5 nM; Cmax [5]: < 100 nM; solubility [7]: < 1 µg/mL |
| CC(C)(C)NC(=O)[C@@H]1CCCCN1C[C@@H](O)C[C@@H](Cc1ccccc1)C(=O)N[C@@H]1c2ccccc2C[C@H]1O | – | 80 | – |
| CC(C)(C)NC(=O)[C@@H]1CN(CCOCc2ccccc2)CCN1C[C@@H](O)C[C@@H](Cc1ccccc1)C(=O)N[C@@H]1c2ccccc2C[C@H]1O | 100 | 1.03 | – |
| CC(C)(C)NC(=O)[C@@H]1CC2CCCCC2CN1C[C@@H](O)C[C@@H](Cc1ccccc1)C(=O)N[C@@H]1c2ccccc2C[C@H]1O (some centres undefined) | 400 | 7.8 | – |
| CC(C)(C)NC(=O)[C@@H]1CNCCN1C[C@@H](O)C[C@@H](Cc1ccccc1)C(=O)N[C@@H]1c2ccccc2C[C@H]1O | 3000 | 38 | – |
| CC(C)(C)NC(=O)[C@@H]1C[C@H](Oc2ccc3ccccc3c2)CN1C[C@@H](O)C[C@@H](Cc1ccccc1)C(=O)N[C@@H]1c2ccccc2C[C@H]1O | > 400 | 15 | – |
| CC(C)(C)NC(=O)[C@@H]1CN(Cc2ccccc2)CCN1C[C@@H](O)C[C@@H](Cc1ccccc1)C(=O)N[C@@H]1c2ccccc2C[C@H]1O | 50 | 0.3 | – |
